Patent US10206937B2, “Boronic acid derivatives and therapeutic uses thereof” (Qpex Biopharma, Inc., priority 2014, dated 2019)

Tested on: strains of Enterobacteriaceae producing various carbapenemases (class A, D and B; 104 strains)
Assay: Antibiotics potentiation by Compound 27 (MIC; meropenem, doripenem, ertapenem, cefepime)
Assay type: cell-based
Conditions: + 27 = with Compound 27 at fixed 4 μg/ml

Structure (SMILES): COc1ccc2c(c1C(=O)O)OB(O)C(Sc1nnc(N)s1)C2 (stereo not shown) [D + 27]
- MIC (strain KP1081 Klebsiella pneumoniae (NDM-1, TEM-1, SHV-11, CMY-6, CTX-M-15)): X (MIC of less than 1 μg/mL)
- MIC (strain KP1082 Klebsiella pneumoniae (KPC-2, SHV-1)): X (MIC of less than 1 μg/mL)
- MIC (strain KP1083 Klebsiella pneumoniae (KPC-3, SHV-1, TEM-1)): X (MIC of less than 1 μg/mL)
- MIC (strain KP1084 Klebsiella pneumoniae (KPC-3, SHV-11, TEM-1)): Y (MIC of 1 μg/mL to 10 μg/mL)
- MIC (strain KP1086 Klebsiella pneumoniae (OXA-48, CTX-M-15, TEM, SHV)): Y (MIC of 1 μg/mL to 10 μg/mL)
- MIC (strain KP1087 Klebsiella pneumoniae (KPC-2, CTX-M-15, SHV-11, TEM-1)): Y (MIC of 1 μg/mL to 10 μg/mL)
- MIC (strain KP1088 Klebsiella pneumoniae (KPC-3, SHV-11, TEM-1)): X (MIC of less than 1 μg/mL)
- MIC (strain KP1089 Klebsiella pneumonias (OXA-181, CTX-M-15, TEM, SHV)): X (MIC of less than 1 μg/mL)
- MIC (strain KP1095 Klebsiella pneumoniae (KPC-2 TEM-1 SHV-1)): X (MIC of less than 1 μg/mL)
- MIC (strain KP1096 Klebsiella pneumoniae (KPC-2 TEM-181 SHV-11)): X (MIC of less than 1 μg/mL)
- MIC (strain KP1097 Klebsiella pneumonias (IMP-1)): X (MIC of less than 1 μg/mL)
- MIC (strain KP1098 Klebsiella pneumoniae (IMP-26)): Y (MIC of 1 μg/mL to 10 μg/mL)
- MIC (strain KP1104 Klebsiella pneumoniae (KPC TEM)): X (MIC of less than 1 μg/mL)
- MIC (strain KP1105 Klebsiella pneumoniae (KPC TEM SHV)): X (MIC of less than 1 μg/mL)
- MIC (strain KP1159 Klebsiella pneumoniae (SHV-1(2b); CTX-M-15; IMP-4)): X (MIC of less than 1 μg/mL)
- MIC (strain KP1160 Klebsiella pneumoniae (SHV-28(2be); CTX-M-15; IMP-26)): X (MIC of less than 1 μg/mL)
- MIC (strain KP1161 Klebsiella pneumoniae (NDM-1)): X (MIC of less than 1 μg/mL)
- MIC (strain KP1164 Klebsiella pneumoniae (SHV-12(2be); VIM-1)): X (MIC of less than 1 μg/mL)
- MIC (strain KP1165 Klebsiella pneumoniae (SHV-11(2b); CTX-M-15; VIM-27)): Z (MIC of greater than 10 μg/mL)
- MIC (strain KP1166 Klebsiella pneumoniae (SHV-5(2be); VIM-26)): Y (MIC of 1 μg/mL to 10 μg/mL)
- MIC (strain KP1167 Klebsiella pneumoniae (SHV-12(2be); VIM-1)): X (MIC of less than 1 μg/mL)
- MIC (strain KP1169 Klebsiella pneumoniae (SHV-11(2b); VIM-1)): X (MIC of less than 1 μg/mL)
- MIC (strain KP1170 Klebsiella pneumoniae (SHV-11(2b); CTX-M-15; NDM-1)): X (MIC of less than 1 μg/mL)
- MIC (strain KP1172 Klebsiella pneumoniae (SHV-31(2be); DHA-1; VIM-1)): X (MIC of less than 1 μg/mL)
- MIC (strain KP1173 Klebsiella pneumoniae (TEM-33(2br); CTX-M-15; IMP-1)): X (MIC of less than 1 μg/mL)
- MIC (strain KP1174 Klebsiella pneumoniae (CTX-M-14; IMP-1)): X (MIC of less than 1 μg/mL)
- MIC (strain KP1175 Klebsiella pneumoniae (SHV-OSBL(2b); VIM-1)): X (MIC of less than 1 μg/mL)
- MIC (strain KP1177 Klebsiella pneumoniae (SHV-OSBL(2b), TEM-OSBL(2b); CTX-M-15; NDM-1)): X (MIC of less than 1 μg/mL)
- MIC (strain KP1178 Klebsiella pneumoniae (SHV-OSBL(2b;) TEM-OSBL(2b); CTX-M-15; NDM-1)): X (MIC of less than 1 μg/mL)
- MIC (strain KP1179 Klebsiella pneumoniae (SHV-12(2be), TEM-OSBL(2b); CTX-M-15; NDM-7)): X (MIC of less than 1 μg/mL)
- MIC (strain KP1180 Klebsiella pneumoniae (SHV-OSBL(2b), TEM-OSBL(2b); CTX-M-15; DHA-1; IMP-26)): X (MIC of less than 1 μg/mL)
- MIC (strain KP1181 Klebsiella pneumoniae (SHV-OSBL(2b); CTX-M-15; IMP-26)): X (MIC of less than 1 μg/mL)
- MIC (strain KP1183 Klebsiella pneumoniae (SHV-OSBL(2b), TEM-OSBL(2b); CTX-M-15; NDM-1)): X (MIC of less than 1 μg/mL)
- MIC (strain KP1184 Klebsiella pneumoniae (SHV-OSBL(2b); IMP-1)): X (MIC of less than 1 μg/mL)
- MIC (strain KP1185 Klebsiella pneumoniae (SHV-OSBL(2b), TEM-OSBL(2b); IMP-4)): X (MIC of less than 1 μg/mL)
- MIC (strain KP1186 Klebsiella pneumoniae (CTX-M-15; NDM-1)): X (MIC of less than 1 μg/mL)
- MIC (strain KP1187 Klebsiella pneumoniae (SHV-55(2be), TEM-OSBL(2b); CTX-M-15; NDM-1)): X (MIC of less than 1 μg/mL)
- MIC (strain KP1188 Klebsiella pneumoniae (SHV-OSBL(2b); CTX-M-15; NDM-1)): Y (MIC of 1 μg/mL to 10 μg/mL)
- MIC (strain KP1189 Klebsiella pneumoniae (TEM-OSBL(2b); CTX-M-15; CTX-M-27; NDM-1)): X (MIC of less than 1 μg/mL)
- MIC (strain KPM1123 Klebsiella pneumoniae (KPC-2 TEM SHV)): X (MIC of less than 1 μg/mL)
- MIC (strain KPM1202 Klebsiella pneumoniae (KPC SHV TEM)): X (MIC of less than 1 μg/mL)
- MIC (strain KPM1203 Klebsiella pneumoniae (KPC SHV TEM)): X (MIC of less than 1 μg/mL)
- MIC (strain KPM1344 Klebsiella pneumoniae (VIM-1)): X (MIC of less than 1 μg/mL)
- MIC (strain KPM1345 Klebsiella pneumoniae (VIM-1 SHV)): X (MIC of less than 1 μg/mL)
- MIC (strain KPM1347 Klebsiella pneumoniae (NDM-1 SHV CTX-M-15)): X (MIC of less than 1 μg/mL)
- MIC (strain KX1017 Klebsiella oxytoca (KPC-2, OXA-2, SHV-30)): X (MIC of less than 1 μg/mL)
- MIC (strain KX1018 Klebsiella oxytoca (KPC-2, SHV-40, OXY-1)): X (MIC of less than 1 μg/mL)
- MIC (strain KX1019 Klebsiella oxytoca (KPC-2, OXA-2)): X (MIC of less than 1 μg/mL)
- MIC (strain PM1024 Proteus mirabilis (TEM-1(2b); CMY-16; VIM-1)): X (MIC of less than 1 μg/mL)
- MIC (strain PM1026 Proteus mirabilis (DHA-1; IMP-26)): Y (MIC of 1 μg/mL to 10 μg/mL)
- MIC (strain PM1027 Proteus mirabilis (VIM-5)): X (MIC of less than 1 μg/mL)
- MIC (strain SM1023 Serratia marcescens (VIM-4)): Y (MIC of 1 μg/mL to 10 μg/mL)
